The text below walks through data of paper PMC11905336, “Pyrrole‐Tethered Bisbenzoxazole Derivatives: Apoptosis‐Inducing Agents Targeting Breast Cancer Cells” (Chemical Biology & Drug Design, 2025).

One data set has as its system HDFa cells. Kind of data set: Apoptosis/necrosis by flow cytometry, Annexin V/propidium iodide, HDFa. It counts as cell-based, human. The note with it: 48 h, same concentrations as in MCF-7, p < 0.05. Here is the method: Subsequently, flow cytometry analysis was conducted on HDFa cells.
(§1) The assessment of apoptosis through flow cytometry is a valuable method for obtaining quantitative results to determine the levels of apoptosis and necrosis in cells. In our study, the 48th‐hour apoptosis levels of three synthases with the lowest IC50 values (PTB derivatives B8, B14, and B18) were evaluated. To assess apoptosis levels, MCF‐7 cells and healthy fibroblast cells were incubated with these synthases for 48 h. After this incubation period, the cells were treated with Annexin‐V APC and PE propidium iodide (PI) dyes to examine apoptosis levels. Then, to examine the levels of apoptosis, the cells were incubated at a concentration of 2 × 10^5 cells/mL with 5 μL Annexin‐V APC and 10 μL PI dyes in 100 μL Binding buffer for 15 min at room temperature. Samples were then washed twice in PBS, and the BD FACS ARIA III flow cytometry device was used to determine the percentage of apoptotic cells. (Ayaz et al. [2022]).
A general note: A flow cytometer gives signals particle by particle.

Data set [1] relates to MCF‐7 cells. Kind of data set: Cell cycle phases by flow cytometry with propidium iodide, MCF-7. It counts as cell-based, human. The note with it: for Change of G2 phase averages vs control: MCF-7, 48 h at IC50; for Change of G1 phase vs control / Change of S phase vs control: MCF-7, 48 h at IC50, p < 0.05. On the procedure: In the flow cytometry analysis, cell cycle kits facilitated the removal of cytoskeletal and nuclear proteins by disrupting lipid components of the cell membrane using detergents. […] Consequently, we were able to identify abnormal DNA distributions and cell cycle phase profiles in the MCF‐7 breast cancer cell line.
MCF‐7 cells were seeded in a 6‐well plate at a density of 1 × 10^6 cells and incubated for 24 h. […] MCF‐7 cells were then trypsinized, stained, and analyzed using a BD FACSAria III flow cytometer (BD Biosciences, Bedford, MA, USA) with FACS Diva Software and ModFit LT.
The cell cycle kit (MCE USA‐HY‐K1071‐50 T) works on the principle of dissolving the lipids in the cell membrane with the help of detergents. This kit was used to identify cells with abnormal DNA and cell cycle phase distributions in a breast cancer cell line. It was analyzed by removing the cytoskeleton and nuclear proteins with the help of trypsin and digesting the cellular RNA by enzymes. Cells were seeded at 1 × 10^6 in a 6‐well plate and incubated for 24 h. […] Cells were removed by adding trypsin to adherent cells. They were centrifuged at 1000 g for 3–5 min at 4°C, and then the supernatant was discarded. One milliliter of prechilled PBS was added to resuspend the cells, centrifuged at 1000 g for 3–5 min at 4°C, and detected via BD FACSAria III flow cytometer (BD Biosciences, Bedford, MA, USA). Percentage data were obtained using FACS Diva Software and ModFit LT (Şimşek et al. [2020]).

Data set [2] relates to MCF‐7 cells. Nature of the data set: Apoptosis/necrosis by flow cytometry, Annexin V/propidium iodide, MCF-7. Conditions: MCF-7, 48 h, p < 0.05. It is filed as cell-based, human. On the procedure: Flow cytometry analysis was performed to evaluate the percentages of apoptosis for these compounds compared to tamoxifen. MCF‐7 cell suspensions treated with each compound for 48 h were stained using an apoptosis detection kit and subsequently analyzed using flow cytometry.
as §1

In a further data set the test system is MCF‐7. On the set-up: method as in Desai et al. [2020]. The note with it: ref Desai et al. [2020]; cited from earlier work.
For the next data set, the system named is MDA‐MB‐231. Also on record: method as in Desai et al. [2020]. The note with it: ref Desai et al. [2020]; cited from earlier work.
For another data set, the system named is MCF‐7 cell line. On the set-up: method as in earlier work. The note with it: MCF-7, XTT assay, ref Kuzu, Hepokur, Alagoz, et al. [2022], Turkmenoglu; cited from earlier work.
Data set [3] concerns HeLa and HepG2 cell lines. Also on record: method as in Srivastava et al. [2015]. Conditions: ref Srivastava et al. [2015]; cited from earlier work.
The test system of a further data set is MCF‐7 cell lines. Nature of the data set: MTT assay, cytotoxicity on MCF-7 cells. It is filed as cell-based, human. The note with it: for IC50: Homo sapiens, MTT; for IC50 in MCF-7 compared to tamoxifen (fold lower): MCF-7, MTT. Here is the method:
The cytotoxic effects of PTB derivatives on MCF‐7 breast cancer cells were evaluated using the MTT assay at various concentrations (100 nM, 1 μM, 10 μM, 50 μM, and 100 μM).
(§2) The human dermal fibroblast (HDFa) and human breast cancer cells (MCF‐7) were obtained from the American Type Culture Collection (ATCC; Manassas, VA, USA). Cells were cultured in RPMI medium (MCF‐7) and DMEM medium (HDFa) was supplemented with 10% FBS, 1% penicillin–streptomycin, 1% amphotericin, and 2.5% L‐glutamine at 37°C in a 5% CO2 incubator.
MTT Method. The MTT method is used to detect and quantify living organisms cultured with the method colorimetrically. This method relies on intact mitochondria cleaving the tetrazolium ring of the MTT dye. The MTT substance is absorbed and reduced to a colorful, water‐insoluble formazan by a mitochondria‐dependent reaction. Cell viability is measured based on the MTT reduction property, and the density of dye obtained from MTT analysis indicates the number of viable cells. In this study, cell viability was assessed using the MTT (0.5 mg/mL) solution that was added to each well. […] After adding properties to cultures, they were kept at 37°C for 24 h and overnight. Then, at 48 and 72 h after applying the molecules, 10 μL of MTT was added to each well and incubated under similar conditions for 4 h. Absorbance spectrophotometry was performed at a wavelength of 570 nm using the IC50 = [(control absorbents‐sample absorbents)/control absorbents] × 100 calculation method (Khorsandi et al. [2017]).
Background: Tetrazolium dyes change colour on reduction, which living cells bring about.

The next data set has as its system HDFa cell lines. Kind of data set: Cytotoxicity on healthy dermal fibroblasts (MTT / xCELLigence real-time cell analysis). Conditions: Homo sapiens. It counts as cell-based. Here is the method: The cytotoxicity of these derivatives was also assessed in dermal fibroblast cells using xCELLigence analysis as detailed in the Supporting Information.
as §2
xCELLigence Real‐Time Cell Analysis. The xCELLigence system (Real‐Time Cell Analyzer (RTCA) Dual Plate (DP) (Roche Diagnostics GmbH, Penzberg)) was used for real‐time monitoring of cell viability without the need for labeling. A total of 1 × 10^4 HDFa cells were seeded into each well of the E‐plate, and the cell proliferation curve was monitored for 24 h. […] The Cell Index (CI) value was automatically measured every hour for each well using RTCA Software (version 1.2.1) (Yetkin et al. [2021]; Yıldırım et al. [2022]).

Data set [4] deals with A549, A498, HeLa, and HepG2. Also on record: method as in Ersan et al. [2020]. Conditions: ref Ersan et al. [2020], cited from earlier work.
Another data set has as its system Vero healthy cell line. Also on record: method as in Ersan et al. [2020]. Conditions: ref Ersan et al. [2020]; cited from earlier work.
Data set [5] has as its system A549 and MCF‐7 cell lines. Also on record: method as in Belal and Abdelgawad [2017]. The note with it: ref Belal and Abdelgawad [2017]; cited from earlier work.
Data set [6] deals with MCF‐7 cells. On the set-up: method as in earlier work. Conditions: MCF-7, cell cycle analysis, ref Kuzu, Hepokur, Alagoz, et al. [2022], Turkmenoglu; cited from earlier work.
Setting [7] is: MCF7, read-out: IC50 (μM) for MCF‐7 cell lines, 48 h.
[8] abbreviates: MCF7, 24 h, read-out: IC50 (μM) for MCF‐7 cell lines, 24 h.
[9] abbreviates: MCF7, 72 h, read-out: IC50 (μM) for MCF‐7 cell lines, 72 h.
[10] abbreviates: 24 h, values greater than 100 not calculated, read-out: IC50 (μM) for HDFa cell lines, 24 h.
[11] abbreviates: 72 h, values greater than 100 not calculated, read-out: IC50 (μM) for HDFa cell lines, 72 h.
Where [12] appears, read: read-out: IC50 (μM) for HDFa cell lines, 48 h, values greater than 100 not calculated.

SMILES strings stand for the structures. Like-named read-outs stand apart in the source and are kept apart here.

Turning to `CC/C(=C(\c1ccccc1)c1ccc(OCCN(C)C)cc1)c1ccccc1` [Tamoxifen, reference compound], in the data set on HDFa cells, the “Average number of viable cells vs control” value is given as “significant decrease” and the “Percentage of necrosis vs control” value is given as “notable increase”. In addition, in the data set with MCF‐7 cells [1], the “Change of G2 phase averages vs control” value is “No significant changes”, the “Change of G1 phase vs control” value was “significant increase” and the “Change of S phase vs control” value is “corresponding decrease”. In the data set with MCF‐7 cells [2], the “Secondary apoptosis vs control” value is listed as “significantly elevated”.
For `c1ccc2nc(-c3nc4ccccc4o3)cnc2c1` [Compound 12], the IC50 in the data set with MCF‐7 is 0.53 µM; with MDA‐MB‐231, 0.5 µM.
As to `O=c1[nH]cc(F)c(=O)[nH]1` [5‐FU, 5‐fluorouracil], the IC50 with MCF‐7 cell line is 5.06 µM.
Regarding `c1ccc(Cn2nnc(-c3ccccc3)c2-c2nc3ccccc3o2)cc1` [Compound 10], the IC50 in data set [3] is 5 to 30 µg/mL.
For `COC(=O)c1ccc2nc(-c3ccc(-c4nc5cc(OC)ccc5o4)[nH]3)oc2c1` [Compound B18, Methyl 2‐(5‐(5‐Methoxybenzo[d]Oxazol‐2‐Yl)‐1H‐Pyrrol‐2‐Yl)benzo[d]Oxazole‐6‐Carboxylate], the IC50 is 1.3 ± 0.98 µM with MCF‐7 cell lines (setting [7]); 3.53 ± 1.35 µM in the data set on MCF‐7 cell lines (setting [8]); 2.69 ± 0.73 µM in the data set on MCF‐7 cell lines (setting [9]); 98.3 ± 1.58 µM in the data set with HDFa cell lines (setting [10]); at least 100 µM in the data set with HDFa cell lines (setting [11]); at least 100 µM in the data set on HDFa cell lines (setting [12]). Besides, the “IC50 in MCF-7 compared to tamoxifen (fold lower)” value (shortened to “IC50 … (fold lower)”) in the data set with MCF‐7 cell lines is listed as “approximately 8 fold”. Further, the “Average number of viable cells vs control” value with HDFa cells is “significant decrease”. Also, the “Percentage of necrosis vs control” value in the data set with HDFa cells is reported as “notable increase”. In addition, the “Change of G2 phase averages vs control” value in the data set with MCF‐7 cells [1] is “No significant changes”. Further, in the data set with MCF‐7 cells [1], the “Change of G1 phase vs control” value was “significant increase”. Besides, the “Change of S phase vs control” value with MCF‐7 cells [1] is recorded as “corresponding decrease”. Further, in the data set on MCF‐7 cells [2], the “Secondary apoptosis vs control” value was “significantly elevated”.
`COc1ccc2oc(-c3ccc(-c4nc5ccccc5o4)[nH]3)nc2c1` [Compound B8, 2‐(5‐(Benzo[d]Oxazol‐2‐Yl)‐1H‐Pyrrol‐2‐Yl)‐5‐Methoxybenzo[d]Oxazole]: the IC50 with MCF‐7 cell lines (setting [7]) was 1.89 ± 0.12 µM; in the data set with MCF‐7 cell lines (setting [8]), 4.4 ± 0.79 µM; with MCF‐7 cell lines (setting [9]), 3.09 ± 0.21 µM; in the data set with HDFa cell lines (setting [10]), at least 100 µM; with HDFa cell lines (setting [11]), at least 100 µM; in the data set with HDFa cell lines (setting [12]), at least 100 µM. For the same compound, the “IC50 … (fold lower)” value in the data set with MCF‐7 cell lines was “approximately 8 fold”. Besides, in the data set with MCF‐7 cells [2], the “Secondary apoptosis vs control” value is on record as “significantly elevated”.
With `c1ccc2oc(CNCc3nc4ccccc4o3)nc2c1` [Compound 16], in [4] (range across A549, A498, HeLa, HepG2), the IC50 was 0.56 to 2.24 µM. Besides, the “Selectivity for A549 lung cancer cell line compared to other tested cancer cell lines” value in [4] is reported as “fourfold higher selectivity”. In addition, the “Cytotoxicity against Vero healthy cell line” value with Vero healthy cell line was “minimal cytotoxicity”.
Take `c1ccc(-c2cc(-c3nc4ccccc4o3)[nH]n2)cc1` [Compound 11]: in [5], the IC50 is 0.12 to 0.19 µM.
With `COc1ccc2oc(C(=O)N3CCCCC3)nc2c1` [Compound 14], the G0/G1 phase arrest with MCF‐7 cells [6] is 71.2%.
Turning to `COC(=O)c1ccc2nc(-c3ccc(-c4nc5cc(C)ccc5o4)[nH]3)oc2c1` [Compound B14, Methyl 2‐(5‐(5‐Methylbenzo[d]Oxazol‐2‐Yl)‐1H‐Pyrrol‐2‐Yl)benzo[d]Oxazole‐6‐Carboxylate], the IC50 in the data set on MCF‐7 cell lines (setting [7]) was 0.95 ± 1.01 µM; in the data set with MCF‐7 cell lines (setting [8]), 3.28 ± 0.74 µM; with MCF‐7 cell lines (setting [9]), 3.02 ± 2.18 µM; in the data set with HDFa cell lines (setting [10]) it was 94.5 ± 1.37 µM; in the data set with HDFa cell lines (setting [11]), 97.4 ± 2.83 µM; with HDFa cell lines (setting [12]), 96.3 ± 1.38 µM. Besides, in the data set on MCF‐7 cell lines, the “IC50 … (fold lower)” value is reported as “approximately 8 fold”. Also, the “Change of G2 phase averages vs control” value in the data set with MCF‐7 cells [1] is recorded as “No significant changes”. Further, in the data set on MCF‐7 cells [1], the “Change of G1 phase vs control” value is recorded as “significant increase”. The “Change of S phase vs control” value in the data set on MCF‐7 cells [1] is reported as “corresponding decrease”. Further, in the data set on MCF‐7 cells [2], the “Necrosis percentage vs control” value is reported as “significant changes in all groups except for the B14 group”.

One may read the IC50 as the concentration at which inhibition is half-maximal.
